Patent publication US7960375B2, “8-chloro-2,3-benzodiazepine derivatives” (priority 2003, dated 2011)

Legend:
mice [1] = assay: Permanent focal cerebral ischemia in mice; assay type: in vivo; conditions: for Neuroprotective effect (necrotic brain surface area): 30 min after surgery, male NMRI mice, *p < 0.05; for dose that statistically significantly decreased the necrotic surface area: permanent focal ischemia, mice
Method: Permanent Focal Cerebral Ischemia in Mice
In these experiments a modified method of Karkoutly et al. (1990) was used. Male NMRI mice weighing 30-35 g were anaesthetized with 2,2,2-tribromoethanol at 500 mg/kg (20 ml/kg) administered i.p. The surgical procedure was performed according to Welsh et al. (1987). After drilling a hole into the skull the distal branch of the middle cerebral artery was electrocoagulated. Test compounds were administered i.p. 30 min after surgery. Two days later the animals were deeply anaesthetized with sodium pentobarbital (120 mg/kg i.p.). The brain was perfused through the left ventricle of the heart with a 4% solution of 2,3,5-triphenyltetrazolium chloride (TTC). One hour later the animals were decapitated, the brains were removed and placed into ice-cold saline for a few min. Then the brains were fixed in 8% formalin solution for 24 hours. The necrotic (non-stained with TTC) brain surface area was measured by means of an image analyser computer system (DigiCell for Windows 4.0). Statistical significance was assessed using ANOVA followed by Duncan's test.

mice [2] = assay: Maximal electroshock (MES) test in mice; assay type: in vivo; conditions: male NMRI mice, electroshock 30 min after ip. treatment
Method: Maximal Electroshock (MES) Test in Mice
The experiments were performed according to Swinyard et al. (1952). Male NMRI mice weighing 20 to 25 g were treated intraperitoneally with the test compounds administered in a volume of 10 ml/kg. […] The number of animals showing positive reaction was counted in each group. The dose of test substance causing 50% (ED50) inhibition was calculated according to the method of Litchfield and Wilcoxon (1949).
MES=maximal electroshock (in mice): electroshock of sufficient current intensity applied through corneal electrodes to mice causes tonic extensor convulsion of the hind legs.

[3] = Study of toxic effects in rats (body weight gain); assay type: in vivo; conditions: female Wistar rats, 15 mg/kg/day orally for 7 days; mean ± standard error of the mean; control 17.4 ± 1.4
Method: Study of Toxic Effects in Rats
The study was performed in female Wistar rats. On the day preceding the first treatment all animals were weighed and randomly allocated into treatment groups (10 animals/group). The test compounds were suspended in 0.4% hydroxymethyl cellulose solution (Methocell F4 M, Daw Chemical Company, USA) and were administered orally once a day for 7 days. The dose of non-chiral compounds according to the examples 8 and 9 was 15 mg/kg/day.
Animals of the control group were treated with the vehicle. The weight of the animals was registered every day. Weight gain was the difference between body weights on the first day and last day of the experiment. Toxicity of the test compounds was shown as a decrease in body weight or negative weight gain.
BWG=body weight gain: the difference between body weights on the first and last days of the experiment given as mean ± standard error of the mean.

Structure (SMILES)	Neuroprotective effect (necrotic brain surface area) (mice [1]; dose 0.1 mg/kg ip.)	Neuroprotective effect (necrotic brain surface area) (mice [1]; dose 0.3 mg/kg ip.)	Neuroprotective effect (necrotic brain surface area) (mice [1]; dose 1.0 mg/kg ip.)	Neuroprotective effect (necrotic brain surface area) (mice [1]; dose 3.0 mg/kg ip.)	Neuroprotective effect (necrotic brain surface area) (mice [1]; dose 10.0 mg/kg ip.)	dose that statistically significantly decreased the necrotic surface area (mice [1]) [mg/kg i.p.]	MES, ED50 (mice [2]) [mg/kg ip.]	melting point [°C]	BWG (body weight gain) [3] [g]
CNC(=O)N1N=C(c2ccc(N)c(C)c2)c2cc(Cl)ccc2C=C1C [Example 8, 1-(4-Amino-3-methylphenyl)-8-chloro-4-methyl-3H-2,3-benzodiazepine-3-carboxylic acid methyl amide]	−5	−17*	−17*	−15*	−22*	0.3	4.1	210 to 212	9.9 ± 3.1
CCC(=O)N1N=C(c2ccc(N)c(C)c2)c2cc(Cl)ccc2C=C1C								218 to 221	
CC(=O)N1N=C(c2ccc(N)cc2)c2cc3c(cc2C=C1C)OCO3 [7-acetyl-5-(4-aminophenyl)-8-methyl-7H-1,3-dioxolo-[4,5-h][2,3]-benzodiazepine, reference compound]			−1	−14	−21*	10			
CC1=Cc2ccc(Cl)cc2C(c2ccc(N)c(C)c2)=NN1C(=O)NC1CC1 [Example 9, 1-(4-Amino-3-methylphenyl)-8-chloro-4-methyl-3H-2,3-benzodiazepine-3-carboxylic acid cyclopropyl amide]							2.2	233 to 236	17.7 ± 1.3
CC(=O)N1N=C(c2ccc(N)c(C)c2)c2cc(Cl)ccc2C=C1C								209 to 211	
